# Data from ChEMBL document CHEMBL5727873, “Heterocyclic compounds and uses thereof” (2020).
# Target: T1, Histone deacetylase 8 (Homo sapiens, UniProt Q9BY41)
# T1 sequence (Q9BY41 whole entry): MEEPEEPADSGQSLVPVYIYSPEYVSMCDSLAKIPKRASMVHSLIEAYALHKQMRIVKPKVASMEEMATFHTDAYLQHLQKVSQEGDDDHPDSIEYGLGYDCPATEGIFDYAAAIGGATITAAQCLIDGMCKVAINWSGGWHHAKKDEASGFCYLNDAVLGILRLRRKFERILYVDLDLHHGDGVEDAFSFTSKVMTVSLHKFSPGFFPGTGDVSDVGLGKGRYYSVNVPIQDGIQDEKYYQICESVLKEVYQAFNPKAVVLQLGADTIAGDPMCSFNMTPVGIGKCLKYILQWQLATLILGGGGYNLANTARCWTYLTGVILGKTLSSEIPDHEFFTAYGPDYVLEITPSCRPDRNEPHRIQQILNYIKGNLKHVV
# Experiment: Enzymatic Assay: HDAC-Glo I/II Assay Kit was purchased from Promega Corporation (Madison, Wis.), including the following components: HDAC-Glo I/II Buffer (25 mM Tris buffer, pH 8.0, supplemented with 137 mM: NaCl, 2.7 mM KCl, 1% v/v Triton X-100 and 1 mM: MgCl2), luminogenic substrates Boc-GAK(Ac)-aminoluciferin (HDAC-Glo I/II substrate), proprietary developer reagent (containing trypsin). Assay:The HDAC8 reaction was performed at room temperature in white 384-well polystyrene, flat-bottom microtiter plate (Greiner Bio-one, Monroe, N.C.) in a final volume of 20 μL. Test compounds were first diluted serially in DMSO and 100 nL were transferred to the plate wells by Echo 550 (Labcyte, Sunnyvale, Calif.) before the addition of other reaction components. The final concentration of DMSO in the assay was 0.5%. The HDAC-Glo I/II assay reagent was prepared by rehydration of lyophilized HDAC-Glo I/II substrate in 10 mL. HDAC-Glo I/II assay buffer followed with the addition of 10 μL of developer reagent. 10 uL of 3 nM HDAC8 in the HDAC-Glo I/II assay buffer were first dispensed into the microliter plate containing the compounds and incubated at room temperature for 30 min. The reactions were initiated with the addition of 10 uL HDAC-Glo I/II assay reagent with Multidrop.
row,IC50,SMILES
1,< 50 nM,Cn1nc(C(Cc2ccccc2)C(=O)NO)c2ccc(Cl)cc21 (configuration not stated)
2,> 500 nM,CC1CCN(c2cccc3nn(C(Cc4ccccc4)C(=O)NO)cc23)CC1 (configuration not stated)
